Where a name gives a salt, the structure may show the parent alone. Read-outs that look alike come from different tables or passages of the source.
System: platelet aggregation in platelet-rich plasma (PRP)
Test: In-Vitro Platelet Aggregation in PRP (ADP-induced)
Assay type: cell-based, dogs
Conditions: dog PRP, ADP 50 μM final concentration, 1 min preincubation at 37° C., aggregation monitored 1 min, unit inferred, read-out: IC50 (dosage at which 50% of platelet aggregation is inhibited)
Method: In-Vitro Platelet Aggregation in PRP
Healthy male or female dogs were fasted for 8 hours prior to drawing blood; then 30 mL whole blood was collected using a butterfly needle and 30 mL plastic syringe with 3 mL of 0.129M buffered sodium citrate (3.8%). The syringe was rotated carefully as blood was drawn to mix the citrate. Platelet-rich plasma (PRP) was prepared by centrifugation at 975×g for 3.17 minutes at room temperature allowing the centrifuge to coast to a stop without braking. The PRP was removed from the blood with a plastic pipette and placed in a plastic-capped 50 mL Corning conical sterile centrifuge tube which was held at room temperature. Platelet-poor plasma (PPP) was prepared by centrifuging the remaining blood at 2000×g for 15 minutes at room temperature allowing the centrifuge to coast to a stop without braking. The PRP was adjusted with PPP to a count of 2-3×10^8 platelets/mL. The PRP preparation (400 μL) and 50 μL of the compound solution to be tested or saline were preincubated for 1 minute at 37° C. in a BioData aggregometer (BioData, Horsham, Pa.). Adenosine-5'-diphosphate (ADP, 50 μL, 50 μM final concentration) was added to the cuvettes and the aggregation was monitored for 1 minute. All compounds are tested in duplicate. Results are calculated as follows: Percent of control=[(maximal OD minus initial OD of compound) divided by (maximal OD minus initial OD of control saline)]×100. The percent inhibition equals 100-(percent of control).
The compounds tested and their median inhibitory concentrations (IC50) are recorded in Table 1. The IC50 (dosage at which 50% of platelet aggregation is inhibited) were calculated by linear regression of the dose response curve.

[1] = Canis lupus familiaris, Platelet

| SMILES | IC50 | IC50 [1] |
| --- | --- | --- |
| N=C(N)c1ccc(NC(=O)CCC(=O)N[C@@H](CC(=O)O)C(O)c2ccccc2)cc1 (single isomer, unassigned) [Ex 3 Step 2, 3S-[[4-[[4-(aminoiminomethyl)phenyl]amino]-1,4-dioxobutyl]amino]-4-hydroxy-phenylbutanoic acid, trifluoroacetate] | 600 nM | – |
| N=C(N)c1ccc(NC(=O)CCC(=O)N[C@@H]2COC(=O)C2)cc1 [Ex 1 Step 4, N-[4-(aminoiminomethyl)phenyl]-N'-(tetrahydro-5-oxo-3S-furanyl)butanediamide, Trifluoroacetate] | – | 3000 nM |
| N=C(N)c1ccc(NC(=O)CCC(=O)N[C@@H](CC(=O)O)C(O)c2ccccc2)cc1 (single isomer, unassigned) [Ex 2 Step 6, 3S-[[4-[[4-(aminoiminomethyl)phenyl]amino]-1,4dioxobutyl]amino]-4-hydroxy-phenyl-butanoic acid, trifluoroacetate] | 1600 nM | – |
| N=C(N)c1ccc(NC(=O)CCC(=O)N[C@@H](CC(=O)O)C(O)c2ccc3c(c2)OCO3)cc1 (single isomer, unassigned) [Ex 10 Step 2, 3S-[[4-[[4-(aminoiminomethyl)phenyl]amino]-1,4-dioxobutyl]amino-4-hydroxy-4-[5-(1,3-benzodioxolyl)]butanoic acid, trifluoroacetate] | 1300 nM | – |
| N=C(N)c1ccc(NC(=O)CCC(=O)NC2CC(=O)Oc3ccccc32)cc1 (centres unmarked) [Ex 8 Step 2, N-[4-(aminoiminomethyl)phenyl]-N'-[3,4-dihydro-2-oxo-2H-1-benzopyran-4-yl]butanediamide, Trifluoroacetate] | – | 200 nM |
| N=C(N)c1ccc(NC(=O)CCC(=O)N[C@H]2CC(=O)OC2c2ccc3c(c2)OCO3)cc1 (single isomer, unassigned; diastereoisomer 1) [Ex 9 Step 5, N-[4-(aminoiminomethyl)phenyl]-N'-[tetrahydro-5-oxo-2-[5-(1,3-benzodioxolyl)]-3S-furanyl]butanediamide, Trifluoroacetate; Diastereoisomer 1] | 430 nM | – |
| N=C(N)c1ccc(NC(=O)CCC(=O)N[C@H]2CC(=O)OC2c2ccc(F)cc2)cc1 (single isomer, unassigned; diastereoisomer a) [Ex 4 Step 4] | – | 500 nM |
| N=C(N)c1ccc(NC(=O)CCC(=O)N[C@H]2CC(=O)OC2c2ccc3c(c2)OCO3)cc1 (single isomer, unassigned; diastereoisomer 2) [Ex 10 Step 1] | 3000 nM | – |
| N=C(N)c1ccc(NC(=O)CCC(=O)NC(CC(=O)O)c2ccccc2O)cc1 (centres unmarked) [Ex 8 Step 1, 3-[[4-[[4-(aminoiminomethyl)phenyl]-amino]-1,4-dioxobutyl]amino-]3(-hydroxyphenyl)propanoic acid] | – | 260 nM |
| N=C(N)c1ccc(NC(=O)CCC(=O)N[C@@H](CC(=O)O)C(O)c2ccc(F)cc2)cc1 (single isomer, unassigned) [Ex 4 Step 5, 3S-[[4-[[4-(aminoiminomethyl)phenyl]amino]-1,4-dioxobutyl]amino]-4-hydroxy-(4-fluoro-phenyl)butanoic acid, trifluoroacetate] | 150 nM | – |
| N=C(N)c1ccc(NC(=O)CCC(=O)N[C@H]2CC(=O)OC2c2ccccc2)cc1 (single isomer, unassigned; isomer b) [Ex 3 Step 1, N-[4-(aminoiminomethyl)phenyl]-N'-(tetrahydro-5-oxo-2-phenyl-3S-furanyl)butanediamide, trifluoroacetate (Isomer B)] | 2500 nM | – |
| N=C(N)c1ccc(NC(=O)CCC(=O)N[C@H]2CC(=O)OC2c2ccccc2)cc1 (single isomer, unassigned; isomer a) [Ex 2 Step 5, N-[4-(aminoiminomethyl)phenyl]-N'-(tetrahydro-5-oxo-2-phenyl-3S-furanyl)butanediamide, Trifluoroacetate (Isomer A)] | 650 nM | – |
| N=C(N)c1ccc(NC(=O)CCC(=O)N[C@H](CO)CC(=O)O)cc1 [Ex 1 Step 5, 3S-[[4-[[4-aminoiminomethyl)phenyl]amino]-1,4-dioxobutyl]amino]-4-hydroxybutanoic acid, trifluoroacetate] | – | 700 nM |
| N=C(N)c1ccc(NC(=O)CCC(=O)NC(CC(=O)O)C(O)c2nccs2)cc1 (stereo not drawn) [Ex 6 Step 6, 3S-[[4-[[4-(aminoiminomethyl)phenyl]amino]-1,4-dioxobutyl]amino]-4-hydroxy-2-thiazolylbutanoic acid, trifluoroacetate] | 450 nM | – |
| N=C(N)c1ccc(NC(=O)CCC(=O)N[C@@H](CC(=O)O)C(O)c2ccc(F)cc2)cc1 (single isomer, unassigned) [Ex 5 Step 2, 3S-[[4-[[4-(aminoiminomethyl)-phenyl]amino]-1,4-]dioxobutyl]amino]-4-hydroxy-(4-fluoro-phenyl)butanoic acid, trifluoroacetate] | 800 nM | – |
| N=C(N)c1ccc(NC(=O)CCC(=O)N[C@@H](CC(=O)O)C(O)c2ccc3c(c2)OCO3)cc1 (single isomer, unassigned) [Ex 9 Step 6, 3S-[[4-[[4-(aminoiminomethyl)phenyl]amino]-1,4-dioxobutyl]amino]-4-hydroxy-[5-(1,3-benzodioxolyl)]butanoic acid, trifluoroacetate] | 350 nM | – |
| C=CC(O)[C@H](CC(=O)O)NC(=O)CCC(=O)Nc1ccc(C(=N)N)cc1 (stereo partly drawn) [Ex 7 Step 5, 3S-[[4-[[4-(aminoiminomethyl)phenyl]amino]-1,4-dioxobutyl]amino]-4-hydroxy-hex-5-enoic acid, trifluoroacetate] | – | 290 nM |
